Reference: US9125913B2, “Bcl-2-selective apoptosis-inducing agents for the treatment of cancer and immune diseases” (AbbVie Inc., priority 2008, dated 2015)

Columns and labels:
GST-Bcl-2 = experiment: TR-FRET binding assay, Bcl-2; conditions: TR-FRET Ki values
Summary of the method: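 Compounds serially diluted in DMSO from 50 μM (2× starting concentration, 10% DMSO), mixed with GST-tagged protein, F-Bak peptide probe and Tb-labeled antibody, incubated 3 h at room temperature.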

FL5.12/Bcl-2 cells = experiment: FL5.12/Bcl-2 cell viability assay; format: cell-based, murine; conditions: ratio of canine platelet EC50 to FL5.12/Bcl-2 EC50
Summary of the method: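 IL-3 withdrawal 48 hrs (no WEHI-3B medium), then compound 24 hrs, various concentrations; 37° C, 5% CO2; readout CellTitre Glo. Murine prolymphocytic FL5.12 stably overexpressing Bcl-2.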

Q: For `CN1CCC(CNc2ccc(S(=O)(=O)NC(=O)c3ccc(N4CCN(CC5=C(c6ccc(Cl)cc6)CC(C)(C)CC5)CC4)cc3Oc3ccc4[nH]ccc4c3)cc2[N+](=O)[O-])CC1` [Example 104, 4-(4-{[2-(4-chlorophenyl)-4,4-dimethylcyclohex-1-en-1-yl]methyl}piperazin-1-yl)-2-(1H-indol-5-yloxy)-N-[(4-{[(1-methylpiperidin-4-yl)methyl]amino}-3-nitrophenyl)sulfonyl]benzamide], which “Binding selectivity ratio (Bcl-XL Ki/Bcl-2 Ki)” value (from here on “Binding selectivity ratio”) (GST-Bcl-2) is on record?
A: 637.7

Q: And the “Selectivity Ratio (Platelet EC50/FL5.12/Bcl-2 EC50)” value (FL5.12/Bcl-2 cells)?
A: >2392

Q: How did the “Binding selectivity ratio” value (GST-Bcl-2) turn out when `CN1CCC(CNc2ccc(S(=O)(=O)NC(=O)c3ccc(N4CCN(CC5=C(c6ccc(Cl)cc6)CC(C)(C)CC5)CC4)cc3Oc3cccc4[nH]ccc34)cc2[N+](=O)[O-])CC1` [Example 105, 4-(4-{[2-(4-chlorophenyl)-4,4-dimethylcyclohex-1-en-1-yl]methyl}piperazin-1-yl)-2-(1H-indol-4-yloxy)-N-[(4-{[(1-methylpiperidin-4-yl)methyl]amino}-3-nitrophenyl)sulfonyl]benzamide] was run?
A: 62.7

Q: What about the “Selectivity Ratio (Platelet EC50/FL5.12/Bcl-2 EC50)” value (FL5.12/Bcl-2 cells) of the same compound?
A: 2262

Q: What does the source list for `CN1CCC(CNc2ccc(S(=O)(=O)NC(=O)c3ccc(N4CCN(CC5=C(c6ccc(Cl)cc6)CC(C)(C)CC5)CC4)cc3Oc3ccc4[nH]ccc4c3)cc2[N+](=O)[O-])(N(C)C)CC1` [Example 109, 4-(4-{[2-(4-chlorophenyl)-4,4-dimethylcyclohex-1-en-1-yl]methyl}piperazin-1-yl)-N-{[4-({[4-(dimethylamino)-1-methylpiperidin-4-yl]methyl}amino)-3-nitrophenyl]sulfonyl}-2-(1H-indol-5-yloxy)benzamide]?
A: Binding selectivity ratio (Bcl-XL Ki/Bcl-2 Ki) (GST-Bcl-2): >4099.4; Selectivity Ratio (Platelet EC50/FL5.12/Bcl-2 EC50) (FL5.12/Bcl-2 cells): >1404

Q: For `CN(C)CCOc1ccc(-c2ccc(Cl)cc2)c(CN2CCN(c3ccc(C(=O)NS(=O)(=O)c4ccc(NCC5CCOCC5)c(S(=O)(=O)C(F)(F)F)c4)c(Oc4ccccc4)c3)CC2)c1` [Example 120, 4-[4-({4′-chloro-4-[2-(dimethylamino)ethoxy]-1,1′-biphenyl-2-yl}methyl)piperazin-1-yl]-2-phenoxy-N-({4-[(tetrahydro-2H-pyran-4-ylmethyl)amino]-3-[(trifluoromethyl)sulfonyl]phenyl}sulfonyl)benzamide], which “Binding selectivity ratio” value (GST-Bcl-2) is on record?
A: 224.8

Q: What about the “Selectivity Ratio (Platelet EC50/FL5.12/Bcl-2 EC50)” value (FL5.12/Bcl-2 cells) of the same compound?
A: >157

Q: With `CN(C)CCOc1ccc(-c2ccc(Cl)cc2)c(CN2CCN(c3ccc(C(=O)NS(=O)(=O)c4ccc(NCCCN5CCCC5)c([N+](=O)[O-])c4)c(Oc4ccccc4)c3)CC2)c1` [Example 121, 4-[4-({4′-chloro-4-[2-(dimethylamino)ethoxy]-1,1′-biphenyl-2-yl}methyl)piperazin-1-yl]-N-({3-nitro-4-[(3-pyrrolidin-1-ylpropyl)amino]phenyl}sulfonyl)-2-phenoxybenzamide] as the compound, how does the “Binding selectivity ratio” value (GST-Bcl-2) read?
A: 388

Q: And the “Selectivity Ratio (Platelet EC50/FL5.12/Bcl-2 EC50)” value (FL5.12/Bcl-2 cells)?
A: 8

Q: Which results are given for `CN(C)CCOc1cccc(-c2ccc(Cl)cc2)c1CN1CCN(c2ccc(C(=O)NS(=O)(=O)c3ccc(NCC4CCOCC4)c([N+](=O)[O-])c3)c(Oc3ccccc3)c2)CC1` [Example 122, 4-[4-({4′-chloro-3-[2-(dimethylamino)ethoxy]-1,1′-biphenyl-2-yl}methyl)piperazin-1-yl]-N-({3-nitro-4-[(tetrahydro-2H-pyran-4-ylmethyl)amino]phenyl}sulfonyl)-2-phenoxybenzamide]?
A: Binding selectivity ratio (Bcl-XL Ki/Bcl-2 Ki) (GST-Bcl-2): 209.4; Selectivity Ratio (Platelet EC50/FL5.12/Bcl-2 EC50) (FL5.12/Bcl-2 cells): >1259

Q: How did the “Binding selectivity ratio” value (GST-Bcl-2) turn out when `CN(C)CCOc1cccc(-c2ccc(Cl)cc2)c1CN1CCN(c2ccc(C(=O)NS(=O)(=O)c3ccc(NCCCN4CCCC4)c([N+](=O)[O-])c3)c(Oc3ccccc3)c2)CC1` [Example 123, 4-[4-({4′-chloro-3-[2-(dimethylamino)ethoxy]-1,1′-biphenyl-2-yl}methyl)piperazin-1-yl]-N-({3-nitro-4-[(3-pyrrolidin-1-ylpropyl)amino]phenyl}sulfonyl)-2-phenoxybenzamide] was run?
A: 91.5

Q: What about the “Selectivity Ratio (Platelet EC50/FL5.12/Bcl-2 EC50)” value (FL5.12/Bcl-2 cells) of the same compound?
A: 32

Q: Which results are given for `CN(C)CCOc1ccc(-c2ccc(Cl)cc2)c(CN2CCN(c3ccc(C(=O)NS(=O)(=O)c4ccc(NCC5CCOCC5)c([N+](=O)[O-])c4)c(Oc4cccc5[nH]ccc45)c3)CC2)c1` [Example 125, 4-[4-({4′-chloro-4-[2-(dimethylamino)ethoxy]-1,1′-biphenyl-2-yl}methyl)piperazin-1-yl]-2-(1H-indol-4-yloxy)-N-({3-nitro-4-[(tetrahydro-2H-pyran-4-ylmethyl)amino]phenyl}sulfonyl)benzamide]?
A: Binding selectivity ratio (Bcl-XL Ki/Bcl-2 Ki) (GST-Bcl-2): 3879; Selectivity Ratio (Platelet EC50/FL5.12/Bcl-2 EC50) (FL5.12/Bcl-2 cells): 4719

Q: `CN(C)CCOc1ccc(-c2ccc(Cl)cc2)c(CN2CCN(c3ccc(C(=O)NS(=O)(=O)c4ccc(NCC5CCOCC5)c([N+](=O)[O-])c4)c(Oc4ccc5[nH]ccc5c4)c3)CC2)c1` [Example 126, 4-[4-({4′-chloro-4-[2-(dimethylamino)ethoxy]-1,1′-biphenyl-2-yl}methyl)piperazin-1-yl]-2-(1H-indol-5-yloxy)-N-({3-nitro-4-[(tetrahydro-2H-pyran-4-ylmethyl)amino]phenyl}sulfonyl)benzamide] was tested. Which “Binding selectivity ratio” value (GST-Bcl-2) did it give?
A: 13575

Q: What about the “Selectivity Ratio (Platelet EC50/FL5.12/Bcl-2 EC50)” value (FL5.12/Bcl-2 cells) of the same compound?
A: >1618

Q: Which results are given for `CN(C)CCOc1cccc(-c2ccc(Cl)cc2)c1CN1CCN(c2ccc(C(=O)NS(=O)(=O)c3ccc(NCC4CCOCC4)c([N+](=O)[O-])c3)c(Oc3cccc4[nH]ccc34)c2)CC1` [Example 128, 4-[4-({4′-chloro-3-[2-(dimethylamino)ethoxy]-1,1′-biphenyl-2-yl}methyl)piperazin-1-yl]-2-(1H-indol-4-yloxy)-N-({3-nitro-4-[(tetrahydro-2H-pyran-4-ylmethyl)amino]phenyl}sulfonyl)benzamide]?
A: Binding selectivity ratio (Bcl-XL Ki/Bcl-2 Ki) (GST-Bcl-2): 7117.6; Selectivity Ratio (Platelet EC50/FL5.12/Bcl-2 EC50) (FL5.12/Bcl-2 cells): >2000

Q: How did the “Binding selectivity ratio” value (GST-Bcl-2) turn out when `O=C(NS(=O)(=O)c1ccc(NCC2CCOCC2)c([N+](=O)[O-])c1)c1ccc(N2CCN(Cc3cc(OCCN4CCOCC4)ccc3-c3ccc(Cl)cc3)CC2)cc1Oc1cccc2[nH]ccc12` [Example 130, 4-(4-{[4′-chloro-4-(2-morpholin-4-ylethoxy)-1,1′-biphenyl-2-yl]methyl}piperazin-1-yl)-2-(1H-indol-4-yloxy)-N-({3-nitro-4-[(tetrahydro-2H-pyran-4-ylmethyl)amino]phenyl}sulfonyl)benzamide] was run?
A: >4714.3

Q: What about the “Selectivity Ratio (Platelet EC50/FL5.12/Bcl-2 EC50)” value (FL5.12/Bcl-2 cells) of the same compound?
A: >254

Q: How did the “Binding selectivity ratio” value (GST-Bcl-2) turn out when `O=C(NS(=O)(=O)c1ccc(NCC2CCOCC2)c([N+](=O)[O-])c1)c1ccc(N2CCN(Cc3c(OCCN4CCOCC4)cccc3-c3ccc(Cl)cc3)CC2)cc1Oc1cccc2[nH]ccc12` [Example 131, 4-(4-{[4′-chloro-3-(2-morpholin-4-ylethoxy)-1,1′-biphenyl-2-yl]methyl}piperazin-1-yl)-2-(1H-indol-4-yloxy)-N-({3-nitro-4-[(tetrahydro-2H-pyran-4-ylmethyl)amino]phenyl}sulfonyl)benzamide] was run?
A: 2292.2

Q: What about the “Selectivity Ratio (Platelet EC50/FL5.12/Bcl-2 EC50)” value (FL5.12/Bcl-2 cells) of the same compound?
A: >1597

Q: Which “Binding selectivity ratio” value (GST-Bcl-2) does the source give for `O=C(NS(=O)(=O)c1ccc(NCC2CCOCC2)c([N+](=O)[O-])c1)c1ccc(N2CCN(Cc3c(OCCN4CCOCC4)cccc3-c3ccc(Cl)cc3)CC2)cc1Oc1ccc2[nH]ccc2c1` [Example 132, 4-(4-{[4′-chloro-3-(2-morpholin-4-ylethoxy)-1,1′-biphenyl-2-yl]methyl}piperazin-1-yl)-2-(1H-indol-5-yloxy)-N-({3-nitro-4-[(tetrahydro-2H-pyran-4-ylmethyl)amino]phenyl}sulfonyl)benzamide] here?
A: 570.1

Q: And the “Selectivity Ratio (Platelet EC50/FL5.12/Bcl-2 EC50)” value (FL5.12/Bcl-2 cells)?
A: >1196

Q: Which “Binding selectivity ratio” value (GST-Bcl-2) does the source give for `CN(C)CCOc1ccc(-c2ccc(Cl)cc2)c(CN2CCN(c3ccc(C(=O)NS(=O)(=O)c4ccc(NC5CCN(C)CC5)c([N+](=O)[O-])c4)c(Oc4ccccc4)c3)CC2)c1` [Example 133, 4-[4-({4′-chloro-4-[2-(dimethylamino)ethoxy]-1,1′-biphenyl-2-yl}methyl)piperazin-1-yl]-N-({4-[(1-methylpiperidin-4-yl)amino]-3-nitrophenyl}sulfonyl)-2-phenoxybenzamide] here?
A: 31.2

Q: What about the “Selectivity Ratio (Platelet EC50/FL5.12/Bcl-2 EC50)” value (FL5.12/Bcl-2 cells) of the same compound?
A: 5

Q: For `CN(C)CCOc1cccc(-c2ccc(Cl)cc2)c1CN1CCN(c2ccc(C(=O)NS(=O)(=O)c3ccc(NCCCN4CCCC4)c([N+](=O)[O-])c3)c(Oc3ccc4[nH]ccc4c3)c2)CC1` [Example 134, 4-[4-({4′-chloro-3-[2-(dimethylamino)ethoxy]-1,1′-biphenyl-2-yl}methyl)piperazin-1-yl]-2-(1H-indol-5-yloxy)-N-({3-nitro-4-[(3-pyrrolidin-1-ylpropyl)amino]phenyl}sulfonyl)benzamide], which “Binding selectivity ratio” value (GST-Bcl-2) is on record?
A: 347.1

Q: And the “Selectivity Ratio (Platelet EC50/FL5.12/Bcl-2 EC50)” value (FL5.12/Bcl-2 cells)?
A: 98

Q: Which results are given for `CN(C)CCOc1ccc(-c2ccc(Cl)cc2)c(CN2CCN(c3ccc(C(=O)NS(=O)(=O)c4ccc(NCCCN5CCCC5)c([N+](=O)[O-])c4)c(Oc4ccc5[nH]ccc5c4)c3)CC2)c1` [Example 135, 4-[4-({4′-chloro-4-[2-(dimethylamino)ethoxy]-1,1′-biphenyl-2-yl}methyl)piperazin-1-yl]-2-(1H-indol-5-yloxy)-N-({3-nitro-4-[(3-pyrrolidin-1-ylpropyl)amino]phenyl}sulfonyl)benzamide]?
A: Binding selectivity ratio (Bcl-XL Ki/Bcl-2 Ki) (GST-Bcl-2): 779.9; Selectivity Ratio (Platelet EC50/FL5.12/Bcl-2 EC50) (FL5.12/Bcl-2 cells): 108
